Test results taken from PubChem BioAssay (NCI).
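Where inhibition never reached the appropriate level, the endpoint shown equals the highest concentration tested. Otherwise, values were interpolated linearly from a five-concentration, 48-hour dose response in 96-well plates. TGI denotes the concentration required for complete inhibition of growth.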

Tests used:
Experiment in all cases: inhibition of tumour cell growth, NCI panel, 48 h
[1] = tested on: 786-0 renal
[2] = tested on: A549 NSCLC
[3] = tested on: ACHN renal
[4] = tested on: CCRF-CEM leukemia
[5] = tested on: COLO 205 colon
[6] = tested on: DU-145 prostate
[7] = tested on: EKVX NSCLC
[8] = tested on: HCC-2998 colon
[9] = tested on: HCT-116 colon
[10] = tested on: HCT-15 colon
[11] = tested on: HL-60(TB) leukemia
[12] = tested on: HOP-62 NSCLC
[13] = tested on: HOP-92 NSCLC
[14] = tested on: HS 578T breast
[15] = tested on: HT29 colon
[16] = tested on: IGROV1 ovarian
[17] = tested on: K-562 leukemia
[18] = tested on: KM12 colon
[19] = tested on: LOX IMVI melanoma
[20] = tested on: M14 melanoma
[21] = tested on: MALME-3M melanoma
[22] = tested on: MDA-MB-231 breast
[23] = tested on: MDA-MB-435
[24] = tested on: MDA-N
[25] = tested on: MOLT-4 leukemia
[26] = tested on: NCI-H226 lung
[27] = tested on: NCI-H23 lung
[28] = tested on: NCI-H460 lung
[29] = tested on: NCI-H522 lung
[30] = tested on: NCI/ADR-RES ovarian
[31] = tested on: OVCAR-3 ovarian
[32] = tested on: OVCAR-5 ovarian
[33] = tested on: OVCAR-8 ovarian
[34] = tested on: PC-3 prostate
[35] = tested on: RPMI-8226 leukemia
[36] = tested on: SF-268 CNS
[37] = tested on: SF-295 CNS
[38] = tested on: SF-539 CNS
[39] = tested on: SK-MEL-2 melanoma
[40] = tested on: SK-MEL-28 melanoma
[41] = tested on: SK-MEL-5 melanoma
[42] = tested on: SK-OV-3 ovarian
[43] = tested on: SN12C renal
[44] = tested on: SNB-19 CNS
[45] = tested on: SNB-75 CNS
[46] = tested on: SR leukemia
[47] = tested on: SW-620 colon
[48] = tested on: T-47D breast
[49] = tested on: TK-10 renal
[50] = tested on: U251 CNS
[51] = tested on: UACC-257 melanoma
[52] = tested on: UACC-62 melanoma
[53] = tested on: UO-31 renal
[54] = tested on: A498 renal
[55] = tested on: BT-549 breast
[56] = tested on: CAKI-1 renal
[57] = tested on: MCF7 breast
[58] = tested on: OVCAR-4 ovarian
[59] = tested on: RXF 393 renal

## COc1cc2c3c(c1Oc1nnnn1-c1ccccc1)-c1c(ccc4c1OCO4)C[C@H]3N(C)CC2
[1]
  TGI: 39.7 µM
[2]
  TGI: > 100 µM
[3]
  TGI: 88.7 µM
[4]
  TGI: > 100 µM
[5]
  TGI: > 100 µM
[6]
  TGI: > 100 µM
[7]
  TGI: > 100 µM
[8]
  TGI: 36.3 µM
[9]
  TGI: > 100 µM
[10]
  TGI: 73.1 µM
[11]
  TGI: > 100 µM
[12]
  TGI: > 100 µM
[13]
  TGI: 78.6 µM
[14]
  TGI: > 100 µM
[15]
  TGI: 41.9 µM
[16]
  TGI: > 100 µM
[17]
  TGI: > 100 µM
[18]
  TGI: > 100 µM
[19]
  TGI: 77.5 µM
[20]
  TGI: 37.5 µM
[21]
  TGI: 34.8 µM
[22]
  TGI: > 100 µM
[23]
  TGI: 51.3 µM
[24]
  TGI: 55.1 µM
[25]
  TGI: > 100 µM
[26]
  TGI: > 100 µM
[27]
  TGI: > 100 µM
[28]
  TGI: > 100 µM
[29]
  TGI: 94.6 µM
[30]
  TGI: > 100 µM
[31]
  TGI: > 100 µM
[32]
  TGI: > 100 µM
[33]
  TGI: > 100 µM
[34]
  TGI: > 100 µM
[35]
  TGI: > 100 µM
[36]
  TGI: > 100 µM
[37]
  TGI: > 100 µM
[38]
  TGI: > 100 µM
[39]
  TGI: > 100 µM
[40]
  TGI: 37.1 µM
[41]
  TGI: > 100 µM
[42]
  TGI: > 100 µM
[43]
  TGI: > 100 µM
[44]
  TGI: > 100 µM
[45]
  TGI: 91.3 µM
[46]
  TGI: > 100 µM
[47]
  TGI: > 100 µM
[48]
  TGI: > 100 µM
[49]
  TGI: > 100 µM
[50]
  TGI: > 100 µM
[51]
  TGI: 40 µM
[52]
  TGI: 29 µM
[53]
  TGI: > 100 µM

## CC(CN(C)C)C(C#N)(c1ccccc1)c1ccccc1 (stereo unspecified)
[1]
  TGI: > 100 µM
[54]
  TGI: > 100 µM
[2]
  TGI: > 100 µM
[3]
  TGI: > 100 µM
[55]
  TGI: > 100 µM
[56]
  TGI: > 100 µM
[4]
  TGI: > 100 µM
[5]
  TGI: > 100 µM
[6]
  TGI: > 100 µM
[7]
  TGI: > 100 µM
[8]
  TGI: > 100 µM
[9]
  TGI: > 100 µM
[10]
  TGI: > 100 µM
[11]
  TGI: > 100 µM
[12]
  TGI: > 100 µM
[13]
  TGI: > 100 µM
[14]
  TGI: > 100 µM
[15]
  TGI: > 100 µM
[16]
  TGI: > 100 µM
[17]
  TGI: > 100 µM
[18]
  TGI: > 100 µM
[19]
  TGI: > 100 µM
[20]
  TGI: > 100 µM
[21]
  TGI: > 100 µM
[57]
  TGI: > 100 µM
[22]
  TGI: > 100 µM
[23]
  TGI: > 100 µM
[24]
  TGI: > 100 µM
[25]
  TGI: > 100 µM
[26]
  TGI: > 100 µM
[27]
  TGI: > 100 µM
[28]
  TGI: > 100 µM
[29]
  TGI: > 100 µM
[30]
  TGI: > 100 µM
[31]
  TGI: > 100 µM
[58]
  TGI: > 100 µM
[32]
  TGI: > 100 µM
[33]
  TGI: > 100 µM
[34]
  TGI: > 100 µM
[35]
  TGI: > 100 µM
[59]
  TGI: > 100 µM
[36]
  TGI: > 100 µM
[37]
  TGI: > 100 µM
[38]
  TGI: > 100 µM
[39]
  TGI: > 100 µM
[40]
  TGI: > 100 µM
[41]
  TGI: > 100 µM
[42]
  TGI: > 100 µM
[43]
  TGI: > 100 µM
[44]
  TGI: > 100 µM
[45]
  TGI: > 100 µM
[47]
  TGI: > 100 µM
[48]
  TGI: > 100 µM
[49]
  TGI: > 100 µM
[50]
  TGI: > 100 µM
[51]
  TGI: > 100 µM
[52]
  TGI: > 100 µM
[53]
  TGI: > 100 µM
